# What was measured:
# [1] = molecular target: T1, AcuR (Rhodobacter sphaeroides), regulator sequence SEQ ID NO: 9 (Cereibacter sphaeroides, UniProt Q3J6K8); experiment: AcuR biosensor induction (sfGFP reporter, Hill fit); assay type: cell-based; conditions: acrylate
# T1 construct: expressed in transfected cells; host or cells: E. coli DH5alpha transformed with pJKR-H (high copy) or pJKR-L (low copy) plasmid
# T1 sequence (Q3J6K8 1-219): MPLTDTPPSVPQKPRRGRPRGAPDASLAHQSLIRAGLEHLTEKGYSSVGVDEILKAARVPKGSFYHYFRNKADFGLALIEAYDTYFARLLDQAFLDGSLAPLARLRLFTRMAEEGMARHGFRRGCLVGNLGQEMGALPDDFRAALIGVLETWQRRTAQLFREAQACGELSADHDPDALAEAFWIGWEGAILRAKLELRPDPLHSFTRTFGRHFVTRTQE
# Text: Plasmids were constructed using Gibson isothermal assembly methods (see Gibson, D. G., Young, L., Chuang, R. Y., Venter, J. C., Hutchison, C. A., 3rd and Smith, H. O. (2009) Enzymatic assembly of DNA molecules up to several hundred kilobases. Nat Methods, 6, 343-345 incorporated herein by reference in its entirety) and transformed into DH5α electrocompetent cells (New England Biolabs, Ipswich Mass.). […] Each inducible system was implemented on high and low copy plasmids. High copy pJKR-H plasmids were constructed with the pUC origin and beta lactamase antibiotic resistance marker derived from pUC19 (New England Biolabs, Ipswich Mass.). Low copy pJKR-L plasmids were constructed in the same way, except that the pUC origin was replaced by the SC101 origin (including repA) from pSC101 obtained from American Type Culture Collection (ATCC #37032). […] In both these plasmids the antibiotic resistance gene and origin of replication were replaced with p15a-aadA and colA-kanR. Each enzyme was cloned downstream of the constitutive promoter P2 (see Mutalik, V. K., Guimaraes, J. C., Cambray, G., Lam, C., Christoffersen, M. J., Mai, Q. A., Tran, A. B., Paull, M., Keasling, J. D., Arkin, A. P. et al. (2013) Precise and reliable gene expression via standard transcription and translation initiation elements. Nat Methods, 10, 354-360 hereby incorporated by reference in its entirety) and g10 RBS to create pJKR-MIOX variants. These expression plasmids used the colA origin of replication and kanamycin resistance gene for maintenance. Sequences and plasmids are available on Addgene (plasmid numbers 62557-62570).
# DH5α cells transformed with pJKR plasmids and maintained with carbenicillin were used in the induction assays. For each induction evaluation experiment, the cells were grown overnight to saturation before being diluted 1:100 into fresh LB media and incubated at 200 RPM and 37° C. […] Measurements were made on the same Biotek (Winooksi, Vt.) HT plate reader using the same settings: excitation 485/20, emission 528/20, 37° C. and fast shaking. Fluorescence and absorbance were measured every 10 minutes for 15 hours. Fluorescence was measured in arbitrary units (AFU) while optical density was determined by absorbance (OD). Normalized fluorescence was determined by dividing fluorescence by optical density for a given measurement. […]
# The ratio of fluorescence to absorbance at 600 nm was used in order to compensate for changes in cell density over time and between experiments (AFU/OD). […] This transfer function is plotted on a log-log scale in FIG. 1A and FIG. 1B to capture the wide range of inducer concentrations and resulting fluorescence values. […]
# E. coli DH5α cells = experiment: Toxicity of inducer chemicals (growth)
# Protocol: Growth rate was measured for each combination of chemical and concentration during the exponential phase of growth. Rates were normalized to the growth rate of cells without any added chemical and plotted as bar height. Concentration of each inducer is indicated in the table, corresponding to the bar chart by order and color. […] Inducer concentrations mirror the concentrations used in the induction experiments.
# 150 μl of cells were transferred into 96-well plates and the assayed chemical was immediately added in triplicate before further incubation at 600 RPM and 37° C.
# Toxicity of the inducer chemicals was measured to help guide the choice of inducer concentration for biosensor applications. In applications where maximum protein production is the goal, toxicity will be less of a consideration. In contrast, sub-toxic induction is important for complex circuits that require the cell to maintain a healthy cell state.
# acuR = experiment: acuR-based 3HP biosensor induction (indirect, via acrylate); assay type: cell-based, Rhodobacter sphaeroides; conditions: acrylate; no helper plasmid
# Protocol: Metab Eng, 16, 130-139 hereby incorporated by reference in its entirety). All three reactions are useful for a prpR-based biosensor, but for the acuR-based biosensor, accumulation of acrylyl-CoA rather than propionyl-CoA is necessary. […] Accordingly, the domain responsible for conversion of acrylyl-CoA to propionyl-CoA was removed while preserving the activity of the other two domains. […] A 90-fold increase in fluorescence was obtained when the acuR-based biosensor was induced with 10 mM 3HP. […] Fluorescence remained at background levels for greater than 16 hours in the absence of pcs^Δ3 and ach (see FIG. 17).
# Plasmids were constructed using Gibson isothermal assembly methods (see Gibson, D. G., Young, L., Chuang, R. Y., Venter, J. C., Hutchison, C. A., 3rd and Smith, H. O. (2009) Enzymatic assembly of DNA molecules up to several hundred kilobases. Nat Methods, 6, 343-345 hereby incorporated by reference in its entirety) and cloned into DH5α electrocompetent cells purchased from New England Biolabs. Biosynthesis of product molecules was carried out in either BL21 (DE3) or DH5α. The prpR-based 3HP biosensor was implemented as a two-plasmid system. The first plasmid is pPro24-GFP (Addgene plasmid #18880), which expresses GFPuv under the control of the methyl-citrate responsive transcription factor, prpR, on a pBR322 origin of replication providing β-lactam resistance. […]
# [2] = molecular target: T2, TtgR (Pseudomonas putida), regulator sequence SEQ ID NO: 14 (Pseudomonas putida, UniProt Q9AIU0); conditions: no test described; cited from earlier work
# T2 construct: expressed in transfected cells; host or cells: E. coli DH5alpha transformed with pJKR-H (high copy) or pJKR-L (low copy) plasmid
# [3] = molecular target: T2, TtgR (Pseudomonas putida), regulator sequence SEQ ID NO: 14; assay type: cell-based
# Protocol: (§1) DH5α cells transformed with pJKR plasmids and maintained with carbenicillin were used in the induction assays. For each induction evaluation experiment, the cells were grown overnight to saturation before being diluted 1:100 into fresh LB media and incubated at 200 RPM and 37° C. After four hours, 150 μl of the log-phase cells were transferred to 96-well plates and stock inducer was added to achieve the desired range of induction concentrations. Three separate wells were inoculated and independently supplemented with the appropriate amount of inducing chemical for each level of induction. Measurements were made on the same Biotek (Winooksi, Vt.) HT plate reader using the same settings: excitation 485/20, emission 528/20, 37° C. and fast shaking. Fluorescence and absorbance were measured every 10 minutes for 15 hours. Fluorescence was measured in arbitrary units (AFU) while optical density was determined by absorbance (OD). Normalized fluorescence was determined by dividing fluorescence by optical density for a given measurement. Five independent wells containing control strains, transformed with pUC19, were included to provide a measurement of background autofluorescence.
# [4] = system: muconate biosensor benM in BL21 cells; experiment: Real-time muconate monitoring from pathway intermediates with benM biosensor; assay type: cell-based, E. coli; conditions: strain with muconate biosynthesis pathway
# Text: A cell was genetically modified to include the muconate biosensor benM regulating production of a fluorescent molecule, and a LysR-type transcriptional regulator derived from Acinetobacter baylyi (see Craven, S. H., Ezezika, O. C., Haddad, S., Hall, R. A., Momany, C. and Neidle, E. L. (2009) Inducer responses of BenM, a LysR-type transcriptional regulator from Acinetobacter baylyi ADP1. Mol Microbiol, 72, 881-894 hereby incorporated by reference in its entirety). This setup is analogous to the previously described muconate artificial selection in which benM controls expression of an antibiotic resistance gene (see Raman, S., Rogers, J. K., Taylor, N. D. and Church, G. M. (2014) Evolution-guided optimization of biosynthetic pathways. Proceedings of the National Academy of Sciences of the United States of America, 111, 17803-17808 hereby incorporated by reference in its entirety. In order to achieve various muconate production rates for real-time observation, muconate was produced from a range of precursor molecules by implementing the biosynthetic pathway developed by Draths and Frost (see Niu, W., Draths, K. M. and Frost, J. W. (2002) Benzene-free synthesis of adipic acid. Biotechnology progress, 18, 201-211 and Draths, K. M. and Frost, J. W. (1994) Environmentally Compatible Synthesis of Adipic Acid from D-Glucose. […]
# Muconate production monitoring was carried out in BL21 cells doubly transformed with pJKR-H-benM and the muconate production plasmid. […] After four hours, 150 μl of the log-phase cells were transferred to 96-well plates and monitored in the plate reader. After one hour, the specified concentration of pathway intermediate was added in triplicate and fluorescence monitoring was resumed. […] The quantity of muconate in the supernatant was determined by HPLC. […]
# TtgR biosensor = TtgR biosensor induction with phenol and related compounds; assay type: cell-based, E. coli; conditions: 0.1% phenol, 0.1% catechol, up to 0.4% benzene; fluorescence after 90 minutes
# Protocol: All experiments were carried out in triplicate.
# as §1
# [5] = system: inducible promoter driving sfGFP in DH5α cells; experiment: Hill-function fit of maximum GFP expression rate to inducer concentration; assay type: cell-based, E. coli
# Protocol: The GFP expression rate was calculated at each time-point with the formula ΔGFP/OD. Scipy was used to perform a non-linear least-squares fit of the maximum GFP expression rate to the corresponding inducer concentration using the Hill function
# Vmax is the maximum rate of GFP expression, Vmin is basal rate of GFP expression, I is the concentration of inducer, h is the hill coefficient and KL is the lumped half-maximal parameter described in Results. The variance of each parameter was determined from the least-squares covariance matrix.
# A model of gene activation is applied as described herein to relate promoter activity to inducer concentration. Promoter activity is defined as the time derivative of fluorescence corrected for cell growth. […] Gene expression rates were fit to a Hill function adapted to account for both the maximum velocity of gene expression and the basal expression of the uninduced cells.
compound,measurement,setting,value
"C=CC(=O)O [Acrylate, acrylate]",Hill Coefficient,[1]; high copy,3.2 ± 0.3
same,Max Expression Velocity,[1]; high copy,910 ± 40 s⁻¹
same,Hill Coefficient,[1]; low copy,1.3 ± 0.1
same,Max Expression Velocity,[1]; low copy,150 ± 10 s⁻¹
same,Toxicity in induction experiment,E. coli DH5α cells; 10 mM acrylate,high toxicity
same,Toxicity,E. coli DH5α cells; acrylate 5 mM and 10 mM,substantial toxicity
same,Response of acrylate biosensor without helper plasmid,acuR,respond to acrylate
"O=C(N[C@H](CO)[C@H](O)c1ccc([N+](=O)[O-])cc1)C(Cl)Cl [Chloramphenicol, chloramphenicol]",Activation of TtgR by chloramphenicol,[2],activation
"CC(C)c1ccc(C(=O)O)cc1 [Cumate, cumate]",Activation of TtgR by cumate,"[3]; cross-reactivity panel, 20 μM",not activated
"O=C(O)C1=CC(=O)[C@@H](O)[C@H](O)C1 [DHS, 3-dehydroshikimate]",fluorescence response of muconate biosensor,[4],rapid fluorescence response
"Oc1ccccc1 [Phenol, phenol]",Activation of TtgR sensor,"[3]; 0.1%, 90 min",only phenol activated the sensor
Oc1ccccc1O [catechol],fluorescent response of TtgR biosensor,TtgR biosensor,did not activate the sensor
same,fluorescence response of muconate biosensor,[4],rapid fluorescence response
O=C(O)c1ccc(O)c(O)c1 [protocatechuate],fluorescence response of muconate biosensor,[4],rapid fluorescence response
AraC,Basal Expression Velocity,[5]; High copy number plasmid,20 ± 50 s⁻¹
same,Basal Expression Velocity,[5]; Low copy number plasmid,40 ± 30 s⁻¹

# From US11365410B2, “Production and monitoring of metabolites in cells” (President and Fellows of Harvard College, priority 2015, dated 2022)
